# Results: ChEMBL document CHEMBL1131042, “beta-Lactam derivatives as inhibitors of human cytomegalovirus protease” (J Med Chem, 1998)
# What was measured:
# [1] = Time taken to reduce 50% of the concentration of compound in blood plasma; format: ADME, tissue-based; conditions: human
# [2] = molecular target: T1, Neutrophil elastase (Homo sapiens, UniProt P08246); assay: Compound was tested for its activity against human leukocyte elastase(HLE)
# T1 sequence (P08246 whole entry): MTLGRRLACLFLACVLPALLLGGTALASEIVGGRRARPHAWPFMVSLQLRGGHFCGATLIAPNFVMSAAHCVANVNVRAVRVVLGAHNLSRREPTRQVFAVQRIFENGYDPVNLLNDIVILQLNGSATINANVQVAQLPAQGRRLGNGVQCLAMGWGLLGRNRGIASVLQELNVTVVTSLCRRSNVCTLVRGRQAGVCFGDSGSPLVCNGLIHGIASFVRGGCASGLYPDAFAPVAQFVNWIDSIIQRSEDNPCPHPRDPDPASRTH
# [3] = molecular target: Pancreatic elastase (Sus scrofa, UniProt P08419+P00772); assay: Compound was tested for its activity against porcine Pancreatic elastase; format: protein assay
# [4] = molecular target: Chymotrypsinogen A (Bos taurus, UniProt P00766); assay: Compound was tested for its activity against bovine pancreatic Alpha-chymotrypsin (BPC)
half-life [1],IC50 [2],IC50 [3],IC50 [4],SMILES
< 12 h,< 0.2 µM,< 0.2 µM,2.2 µM,CS[C@@H]1C(=O)N(C(=O)NCc2ccncc2)[C@H]1Cc1ccccc1
24 h,> 75 µM,> 75 µM,> 75 µM,O=C1C[C@H](Cc2ccccc2)N1C(=O)NCc1ccncc1
48 h,–,1.7 µM,19 µM,CC[C@@H]1C(=O)N(C(=O)NCc2ccncc2)[C@H]1Cc1ccccc1
36 h,0.3 µM,4.7 µM,6 µM,C=CC[C@@H]1C(=O)N(C(=O)NCc2ccncc2)[C@H]1Cc1ccccc1
36 h,–,19 µM,–,C[C@H]1C(=O)N(C(=O)NCc2ccncc2)[C@H]1Cc1ccccc1
< 12 h,0.9 µM,0.3 µM,38 µM,CO[C@@H]1C(=O)N(C(=O)NCc2ccncc2)[C@H]1Cc1ccccc1
36 h,–,53 µM,–,C[C@@H]1C(=O)N(C(=O)NCc2ccncc2)[C@H]1Cc1ccccc1

# Second part, the compound before the results:
SMILES,half-life [1],IC50 [2],IC50 [3],IC50 [4]
O=C1C[C@H](Cc2ccccc2)N1C(=O)Nc1ccccc1,< 12 h,–,–,–
CN(Cc1ccccc1)C(=O)N1C(=O)C[C@@H]1Cc1ccccc1,36 h,–,–,–
CON(Cc1ccccc1)C(=O)N1C(=O)C[C@@H]1Cc1ccccc1,< 12 h,–,–,–
O=C1C[C@H](Cc2ccccc2)N1C(=O)NCc1ccccc1,36 h,–,–,–
O=C1C[C@H](Cc2ccccc2)N1C(=O)NCc1ccccn1,36 h,–,–,–
COc1ccc(NC(=O)N2C(=O)C[C@@H]2Cc2ccccc2)cc1,12 h,–,–,–
O=C1C[C@H](Cc2ccccc2)N1C(=O)N(Cc1ccccc1)OCc1ccccc1,< 12 h,–,–,–
Cc1ccc(NC(=O)N2C(=O)C[C@@H]2Cc2ccccc2)cc1,< 12 h,–,–,–
O=C1C[C@H](Cc2ccccc2)N1C(=O)NCCc1ccccc1,36 h,–,–,–
O=C1C[C@H](Cc2ccccc2)N1C(=O)Nc1ccc(F)cc1,< 12 h,–,–,–
O=C1C[C@H](Cc2ccccc2)N1C(=O)NCc1cccnc1,24 h,–,–,–
O=C1C[C@H](Cc2ccccc2)N1C(=O)NC1CCCCC1,24 h,–,–,–
"CC1(C)C(=O)N(C(=O)NCc2ccncc2)C1Cc1ccccc1 (single isomer, unassigned)",120 h,–,–,–
CCN(Cc1ccccc1)C(=O)N1C(=O)C[C@@H]1Cc1ccccc1,48 h,–,–,–
O=C1C[C@H](Cc2ccccc2)N1C(=O)N(Cc1ccccc1)C1CC1,48 h,–,–,–
CC1(C)C(=O)N(C(=O)NCc2ccncc2)[C@H]1Cc1ccccc1,120 h,3 µM,45 µM,> 75 µM
